Laboratory results reported in the NIST ThermoML archive (doi:10.1016/j.fluid.2011.01.027).

CCn1cc[n+](C)c1.O=S(=O)([O-])C(F)(F)F [1-ethyl-3-methylimidazolium trifluoromethanesulfonate]
Settings | surface tension liquid-gas [mN/m]
268.29 K, Wilhelmy plate method | 41.39
268.36 K, du Nouy ring method | 41.4
272.08 K, Wilhelmy plate method | 41.28
272.13 K, du Nouy ring method | 41.3
276.54 K, Wilhelmy plate method | 41.1
276.65 K, du Nouy ring method | 41.16
281 K, Wilhelmy plate method | 40.96
281.05 K, du Nouy ring method | 41.1
287.58 K, du Nouy ring method | 40.79
287.63 K, Wilhelmy plate method | 40.69
293 K, du Nouy ring method | 40.74
293.01 K, Wilhelmy plate method | 40.52
298.01 K, Wilhelmy plate method | 40.43
298.04 K, du Nouy ring method | 40.39
303.18 K, du Nouy ring method | 40.18
303.2 K, Wilhelmy plate method | 40.24
308.2 K, Wilhelmy plate method | 40.07
308.31 K, du Nouy ring method | 40.01
313.27 K, Wilhelmy plate method | 39.93
313.31 K, du Nouy ring method | 39.75
318.36 K, Wilhelmy plate method | 39.68
318.39 K, du Nouy ring method | 39.83
323.33 K, Wilhelmy plate method | 39.5
323.38 K, du Nouy ring method | 39.38
328.2 K, du Nouy ring method | 39.44
333.07 K, Wilhelmy plate method | 39.16
333.12 K, du Nouy ring method | 39.24
338.1 K, Wilhelmy plate method | 39.03
338.15 K, du Nouy ring method | 39.02
343.14 K, Wilhelmy plate method | 38.85
343.21 K, du Nouy ring method | 38.85
348.38 K, Wilhelmy plate method | 38.65
348.53 K, du Nouy ring method | 38.62
356.09 K, Wilhelmy plate method | 38.37
356.28 K, du Nouy ring method | 38.31

CCn1cc[n+](C)c1.F[B-](F)(F)F [1-ethyl-3-methylimidazolium tetrafluoroborate]
surface tension liquid-gas [mN/m]
Settings | Wilhelmy plate method | du Nouy ring method
288.05 K | – | 54.61
288.06 K | 54.61 | –
292.92 K | 54.28 | –
292.93 K | – | 54.55
298.1 K | 53.97 | –
298.12 K | – | 54.01
303.12 K | 53.65 | –
303.13 K | – | 53.96
308.27 K | 53.34 | 53.77
313.33 K | 52.98 | –
313.43 K | – | 53.05
318.3 K | 52.7 | –
318.35 K | – | 52.86
323.5 K | 52.39 | –
323.53 K | – | 52.54
328.4 K | 52.05 | –
328.54 K | – | 52.18
333.32 K | 51.74 | –
333.48 K | – | 51.87
338.38 K | – | 51.48
338.39 K | 51.4 | –
343.18 K | 51.11 | –
343.32 K | – | 51.11
348.7 K | 50.76 | –
348.78 K | – | 50.74
355.91 K | – | 50.26
355.99 K | 50.27 | –

CCCCCCn1cc[n+](C)c1.F[B-](F)(F)F [1-hexyl-3-methylimidazolium tetrafluoroborate]
surface tension liquid-gas [mN/m]
Settings | Wilhelmy plate method | du Nouy ring method
268.58 K | 39.81 | 39.79
273.34 K | 39.52 | 39.54
277.72 K | 39.29 | –
277.76 K | – | 39.32
282.51 K | 39.04 | –
282.71 K | – | 39.21
288.13 K | 38.71 | 38.75
292.87 K | 38.47 | –
292.93 K | – | 38.49
298.07 K | 38.2 | 38.21
303.15 K | 37.88 | –
303.19 K | – | 37.85
308.22 K | – | 37.66
308.23 K | 37.64 | –
313.35 K | 37.32 | –
313.48 K | – | 37.33
318.39 K | – | 37.08
318.48 K | 37.08 | –
323.32 K | – | 36.83
323.34 K | 36.81 | –
328.17 K | 36.53 | –
328.2 K | – | 36.54
333.22 K | 36.25 | –
333.24 K | – | 36.21
337.92 K | 36.01 | –
337.97 K | – | 36
343.79 K | 35.68 | 35.7
348.5 K | 35.44 | –
348.54 K | – | 35.39
356.17 K | 34.99 | –
356.18 K | – | 35
